Structures can show the parent of a compound that is named as a salt.
Target: T1, full length SGK1 (Homo sapiens, UniProt O00141)
T1 construct: 125 μM full length SGK1 (Life Technologies Part #PR7358A); purchased Life Technologies PR7358A
T1 sequence (O00141 1-431): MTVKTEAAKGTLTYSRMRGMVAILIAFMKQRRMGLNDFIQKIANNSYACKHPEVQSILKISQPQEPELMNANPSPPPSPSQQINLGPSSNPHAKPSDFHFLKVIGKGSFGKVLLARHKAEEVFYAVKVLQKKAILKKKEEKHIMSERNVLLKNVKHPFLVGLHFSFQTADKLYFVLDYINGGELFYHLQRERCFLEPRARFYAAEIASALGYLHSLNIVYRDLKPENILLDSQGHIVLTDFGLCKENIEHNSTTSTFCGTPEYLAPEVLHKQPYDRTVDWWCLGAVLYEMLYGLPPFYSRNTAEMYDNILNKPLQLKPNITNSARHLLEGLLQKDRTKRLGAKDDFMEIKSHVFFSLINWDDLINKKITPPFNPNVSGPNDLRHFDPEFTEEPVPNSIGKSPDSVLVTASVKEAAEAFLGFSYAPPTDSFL
Assay: SGK1 inhibition Assay A (Caliper LabChip electrophoretic separation of fluorescent peptide substrate and phosphorylated product)
Type: biochemical
Conditions: Assay A; 20 μM ATP, 40 min incubation; read-out: SGK1 IC50

Structure (SMILES) | IC50
CN(C)CCOc1cc(Cl)sc1C(=O)N[C@@H]1CCCN(c2cc(-c3ccc(C=O)cc3)n3ncnc(N)c23)C1 [Example 276, (R)—N-(1-(4-amino-7-(4-formylphenyl)pyrrolo[2,1-f][1,2,4]triazin-5-yl)piperidin-3-yl)-5-chloro-3-(2-(dimethylamino)ethoxy)thiophene-2-carboxamide] | 1 nM
COC(=O)N1CC=C(c2cc(N3CCC[C@@H](NC(=O)c4sc(C(F)F)cc4OCCN4CCN(C)CC4)C3)c3c(N)ncnn23)C1 [Example 334, Methyl (R)-3-(4-amino-5-(3-(5-(difluoromethyl)-3-(2-(4-methylpiperazin-1-yl)ethoxy)thiophene-2-carboxamido)piperidin-1-yl)pyrrolo[2,1-f][1,2,4]triazin-7-yl)-2,5-dihydro-1H-pyrrole-1-carboxylate] | 9 nM
Nc1ncnn2c(-c3ccncc3)cc(N3CCC[C@@H](NC(=O)c4ccccc4)C3)c12 [Example 126, N-[(3R)-1-[4-amino-7-(pyridin-4-yl)pyrrolo[2,1-f][1,2,4]triazin-5-yl]piperidin-3-yl]benzamide] | 5 nM
COc1ccc(-n2cc(OCCN(C)C)c(C(=O)N[C@@H]3CCCN(c4cc(-c5ccc(C#N)nc5)n5ncnc(N)c45)C3)n2)cc1 [Example 392] | 151 nM
Nc1ncnn2c(-c3ccnc(C(F)F)c3)cc(N3CCC[C@@H](NC(=O)c4ccc(Cl)s4)C3)c12 [Example 483, (R)-N-(1-(4-amino-7-(2-(difluoromethyl)pyridin-4-yl)pyrrolo[2,1-f][1,2,4]triazin-5-yl)piperidin-3-yl)-5-chlorothiophene-2-carboxamide] | 4 nM
COc1cc(C(=O)N[C@@H]2CCCN(c3cc(-c4ccc(S(C)(=O)=O)cc4)n4ncnc(N)c34)C2)sn1 [Example 71, (R)-N-(1-(4-amino-7-(4-(methylsulfonyl)phenyl)pyrrolo[2,1-f][1,2,4]triazin-5-yl)piperidin-3-yl)-3-methoxyisothiazole-5-carboxamide] | 6 nM
COc1ncccc1C(=O)N[C@@H]1CCCN(c2cc(-c3ccc(S(C)(=O)=O)cc3)n3ncnc(N)c23)C1 [Example 60, (R)-N-(1-(4-amino-7-(4-(methylsulfonyl)phenyl)pyrrolo[2,1-f][1,2,4]triazin-5-yl)piperidin-3-yl)-2-methoxynicotinamide] | 130 nM
Nc1ncnn2c(-c3cn(C4CCNC4)nn3)cc(N3CCC[C@@H](NC(=O)c4ccc(Cl)s4)C3)c12 (stereo partly drawn) [Example 866, N-((3R)-1-(4-amino-7-(1-(pyrrolidin-3-yl)-1H-1,2,3-triazol-4-yl)pyrrolo[2,1-f][1,2,4]triazin-5-yl)piperidin-3-yl)-5-chlorothiophene-2-carboxamide] | 517 nM
Nc1ncnn2c(-c3ccnc(C(F)F)c3)cc(N3CCC[C@@H](NC(=O)c4ccc(-c5ccnc(C(F)F)c5)s4)C3)c12 [Example 542, (R)-N-(1-(4-amino-7-(2-(difluoromethyl)pyridin-4-yl)pyrrolo[2,1-f][1,2,4]triazin-5-yl)piperidin-3-yl)-5-(2-(difluoromethyl)pyridin-4-yl)thiophene-2-carboxamide] | 4 nM
CS(=O)(=O)N1CC=C(c2cc(N3CCC[C@@H](NC(=O)c4sc(Cl)cc4OCCN4CCOCC4)C3)c3c(N)ncnn23)C1 [Example 142, (R)—N-(1-(4-amino-7-(1-(methylsulfonyl)-2,5-dihydro-1H-pyrrol-3-yl)pyrrolo[2,1-f][1,2,4]triazin-5-yl)piperidin-3-yl)-5-chloro-3-(2-morpholinoethoxy)thiophene-2-carboxamide, TFA] | 9 nM
Cn1cc(C(=O)N[C@@H]2CCCN(c3cc(-c4ccc(S(C)(=O)=O)cc4)n4ncnc(N)c34)C2)cn1 [Example 28, (R)-N-(1-(4-amino-7-(4-(methylsulfonyl)phenyl)pyrrolo[2,1-f][1,2,4]triazin-5-yl)piperidin-3-yl)-1-methyl-1H-pyrazole-4-carboxamide] | 32 nM
CN(C)CCOc1cc(Cl)sc1C(=O)N[C@@H]1CCCN(c2cc(C3=CCN(C(=O)CC(F)(F)F)CC3)n3ncnc(N)c23)C1 [Example 181, (R)-N-(1-(4-amino-7-(1-(3,3,3-trifluoropropanoyl)-1,2,3,6-tetrahydropyridin-4-yl)pyrrolo[2,1-f][1,2,4]triazin-5-yl)piperidin-3-yl)-5-chloro-3-(2-(dimethylamino)ethoxy) thiophene-2-carboxamide, 2 TFA] | 17 nM
Nc1ncnn2c(-c3cn(CCC(=O)O)nn3)cc(N3CCC[C@@H](NC(=O)c4ccc(Cl)s4)C3)c12 [Example 864, (R)-3-(4-(4-amino-5-(3-(5-chlorothiophene-2-carboxamido)piperidin-1-yl)pyrrolo[2,1-f][1,2,4]triazin-7-yl)-1H-1,2,3-triazol-1-yl)propanoic acid] | 120 nM

Continued, values first:

IC50 | Structure (SMILES)
41 nM | CC(=O)N1CC=C(c2cc(N3CCC[C@@H](NC(=O)c4cc5ccccc5n4C)C3)c3c(N)ncnn23)C1 [Example 456, (R)-N-(1-(7-(1-acetyl-2,5-dihydro-1H-pyrrol-3-yl)-4-aminopyrrolo[2,1-f][1,2,4]triazin-5-yl)piperidin-3-yl)-1-methyl-1H-indole-2-carboxamide]
51 nM | CC(=O)N1CC=C(c2cc(N3CCC[C@@H](NC(=O)c4ccn(CC(F)F)n4)C3)c3c(N)ncnn23)C1 [Example 743]
4 nM | Nc1ncnn2c(C3=CCN(C(=O)c4cncs4)C3)cc(N3CCC[C@@H](NC(=O)c4ccc(Cl)s4)C3)c12 [Example 886, (R)-N-(1-(4-amino-7-(1-(thiazole-5-carbonyl)-2,5-dihydro-1H-pyrrol-3-yl)pyrrolo[2,1-f][1,2,4]triazin-5-yl)piperidin-3-y1)-5-chlorothiophene-2-carboxamide]
28 nM | CC(=O)N1CC=C(c2cc(N3CCC[C@@H](NC(=O)c4cc5cc(F)ccc5[nH]4)C3)c3c(N)ncnn23)C1 [Example 517, (R)-N-(1-(7-(1-acetyl-2,5-dihydro-1H-pyrrol-3-yl)-4-aminopyrrolo[2,1-f][1,2,4]triazin-5-yl)piperidin-3-yl)-5-fluoro-1H-indole-2-carboxamide]
14 nM | CC(=O)N1CC=C(c2cc(N3CCCC(NC(=O)c4sc(C(F)F)cc4OC4CCN(C(C)C)CC4)C3)c3c(N)ncnn23)C1 (stereo not drawn) [compound 442]
8 nM | Nc1ncnn2c(C3=CCN(C(=O)c4ncco4)C3)cc(N3CCC[C@@H](NC(=O)c4ccc(Cl)s4)C3)c12 [Example 887, (R)-N-(1-(4-amino-7-(1-(oxazole-2-carbonyl)-2,5-dihydro-1H-pyrrol-3-y1)pyrrolo[2,1-f][1,2,4]triazin-5-y1)piperidin-3-y1)-5-chlorothiophene-2-carboxamide]
8 nM | COC(=O)N1CC=C(c2cc(N3CCC[C@@H](NC(=O)c4sc(C(F)F)cc4OCC4CCNCC4)C3)c3c(N)ncnn23)C1 [Example 351, methyl (R)-3-(4-amino-5-(3-(5-(difluoromethyl)-3-(piperidin-4-yl-methoxy)thiophene-2-carboxamido)piperidin-1-yl)pyrrolo[2,1-f][1,2,4]triazin-7-yl)-2,5-dihydro-1H-pyrrole-1-carboxylate]
1 nM | COC(=O)N(C)CCOc1cc(Cl)sc1C(=O)N[C@@H]1CCCN(c2cc(C3=CCN(C(C)=O)C3)n3ncnc(N)c23)C1 [Example 333]

Reference: patent US20260250290A1 (BRISTOL-MYERS SQUIBB COMPANY, priority 2023, published 2026)
